According to patent US20200337311A1 (priority 2017, published 2020):

Tests used:
[1] = system: Meloidogyne incognita; test: Meloidogyne incognita in vivo test on cucumber plants (gall rating); conditions: 300 ppm; soil application to cucumber seedlings; 15 days after application; untreated check up to 8
Experimental: (§1) Meloidogyne incognita: In Vivo Test
Cucumber plants were grown in seedling tray containing mixture of Sand:Soil:FYM:Cocopeat in ratio of 1:1:1:1. One mL of test compound at tested concentration was applied into the soil mixture with the help of micropipette when the cucumber seedlings ten days old. Approximately 2000 freshly hatched second-stage juveniles of Meloidogyne incognita were inoculated. The treated plants were allowed to grow at 27° C. temperature in greenhouse. Observation of gall rating was recorded after 15 days of application. Plants were carefully uprooted and roots were washed thoroughly. The gall rating was observed on 0-10 scale as described by Zeck (1971) as mentioned below: • 0=no galls • 1=very few small galls • 2=numerous small galls • 3=numerous small galls of which some are grown together • 4=numerous small and some big galls • 5=25% of roots severely galled • 6=50% of roots severely galled • 7=75% of roots severely galled • 8=no healthy roots but plant is still green • 9=roots rotting and plant dying • 10=plant and roots dead
recorded less than 3 gall rating in the tests, where there was extensive galling (up to 8) in untreated check.

[2] = system: Meloidogyne incognita; test: Meloidogyne incognita (root-knot nematode) in vitro test; conditions: 300 ppm; 50 juveniles in 500 μL water, 25° C.; counted at 48, 72 and 96 h; no mortality in untreated check
Experimental: Example 1: Meloidogyne incognita (Root-Knot Nematode): In Vitro Test
The test compounds at a concentration of 300 ppm were introduced into 500 μL of distilled water containing 50 Meloidogyne incognita juveniles into 24-well plates. The suspension was lightly shaken for uniform mixing of compounds. The test plates were covered with lids, and were kept for incubation at 25° C. temperature and 90% relative humidity. […] Compounds
as §1

| Structure (SMILES) | gall rating (0-10 scale, Zeck 1971) [1] | mortality [2] [%] |
| --- | --- | --- |
| CCO/N=C\c1cnc(SCCC(F)=C(F)F)o1 [Compound 13] | < 3 | – |
| CCO/N=C/c1cnc(S(=O)(=O)CCC(F)=C(F)F)s1 [Compound 23] | < 3 | – |
| CC(C)CCO/N=C/c1cnc(SCCC(F)=C(F)F)s1 [Compound 34] | < 3 | – |
| CCO/N=C/c1cnc([S+]([O-])CCC(F)=C(F)F)o1 (stereo not drawn) [Compound 36] | < 3 | – |
| CO/N=C(\C)c1cnc(S(=O)(=O)CCC(F)=C(F)F)s1 [Compound 53] | < 3 | – |
| [O-][S+](CCC(F)=C(F)F)c1ncc(/C=N\OCC2CC2)o1 (stereo not drawn) [Compound 103] | < 3 | – |
| CO/N=C(\C)c1cnc([S+]([O-])CCC(F)=C(F)F)o1 (stereo not drawn) [Compound 130] | < 3 | – |
| CCO/N=C(\C)c1cnc(SCCC(F)=C(F)F)o1 [Compound 132] | < 3 | – |
| CO/N=C(/C)c1cnc(S(=O)(=O)CCC(F)=C(F)F)o1 [Compound 134] | < 3 | – |
| Cc1csc(S(=O)(CCC(F)=C(F)F)=NC#N)n1 (stereo not drawn) [Compound 183] | < 3 | – |
| [O-][S+](CCC(F)=C(F)F)c1ncc(-c2ncon2)s1 (stereo not drawn) [Compound 213] | < 3 | – |
| CCO/N=C\c1cnc(S(=O)(=O)CCC=C(F)F)s1 [Compound 233] | < 3 | – |
| CO/N=C/c1cnc(SCCC=C(F)F)s1 [Compound 234] | < 3 | – |
| CO/N=C\c1cnc(SCCC=C(F)F)s1 [Compound 235] | < 3 | – |
| CO/N=C\c1cnc(S(=O)(=O)CCC=C(F)F)s1 [Compound 236] | < 3 | – |
| CCO/N=C/c1cnc(S(=O)(=O)CCC=C(F)F)s1 [Compound 237] | < 3 | – |
| CO/N=C/c1oc(SCCC(F)=C(F)F)nc1C [Compound 238] | < 3 | – |

| Structure (SMILES) | gall rating (0-10 scale, Zeck 1971) [1] | mortality [2] [%] |
| --- | --- | --- |
| CO/N=C(/c1oc([S+]([O-])CCC(F)=C(F)F)nc1C)C(C)C (stereo not drawn) [Compound 273] | < 3 | – |
| CO/N=C/c1cnc(SCCC=C(F)F)o1 [Compound 290] | – | > 90 |
| [O-][S+](CCC(F)=C(F)F)c1ncc(C(F)F)s1 (stereo not drawn) [Compound 326] | < 3 | – |
| N#Cc1cnc(SCCC(F)=C(F)F)s1 [Compound 327] | < 3 | – |
| N#Cc1cnc([S+]([O-])CCC(F)=C(F)F)s1 (stereo not drawn) [Compound 328] | < 3 | – |
| O=S(=O)(CCC(F)=C(F)F)c1ncc(C(F)F)s1 [Compound 329] | < 3 | – |
| FC(F)=C(F)CCSc1ncc(C(F)F)o1 [Compound 330] | < 3 | – |
| N#Cc1cnc(SCCC(F)=C(F)F)o1 [Compound 331] | < 3 | – |
| N#Cc1cnc(S(=O)(=O)CCC(F)=C(F)F)s1 [Compound 332] | < 3 | – |
| N#Cc1cnc([S+]([O-])CCC(F)=C(F)F)o1 (stereo not drawn) [Compound 333] | < 3 | – |
| Cc1nc([S+]([O-])CCC(F)=C(F)F)sc1C(F)F (stereo not drawn) [Compound 337] | < 3 | – |
| Cc1nc([S+]([O-])CCC(F)=C(F)F)sc1C#N (stereo not drawn) [Compound 338] | < 3 | – |
| Cc1nc(S(=O)(=O)CCC(F)=C(F)F)sc1C#N [Compound 339] | < 3 | – |
| Cc1nc(S(=O)(=O)CCC(F)=C(F)F)sc1C(F)F [Compound 340] | < 3 | – |
| Cc1nc([S+]([O-])CCC(F)=C(F)F)oc1C#N (stereo not drawn) [Compound 348] | < 3 | – |
| Cc1nc(S(=O)(=O)CCC(F)=C(F)F)oc1C(F)F [Compound 350] | < 3 | – |
